pIC50: −log10 of the molar value.
Tests used:
AsPc-1 = experiment: Activity in cell strains with high expression of efflux pump proteins, cell viability assay; type: cell-based; conditions: Homo sapiens, ASPC1, AsPc-1 cells, 96 h
Description: (§1) Three types of cells used for evaluating the activity of the compounds of the present disclosure against a cell strain with high expression of efflux pump proteins were all purchased from Nanjing Cobioer Biosciences Co., Ltd., and all the cells were derived from ATCC (American Type Culture Collection). Various tumor cells were cultured until the cell confluency reached 80%-90%, with cell viability above 90% as determined by trypan blue exclusion. Then, the cells were plated. Specifically, after cell density optimization, 75 µL of each of three cell suspensions of SNU-5, HCT-15, and AsPc-1 cells (3000 cells/well) was inoculated into a BeyoGold™ ultra-low attachment black clear-bottom 96-well plate (Cat. No.: FULA965-24pcs), and the plate was incubated overnight in a cell incubator at 37 °C with carbon dioxide. The next day, after the cells adhered to the wall, 75 µL of the compounds diluted with the corresponding culture media were added. Specifically, the compounds were serially diluted at a 5-fold gradient starting from the highest concentration of 1 µM, with a final DMSO concentration of 1‰, and the test compounds were then added to the cell culture plate. The plate was incubated in an incubator at 37 °C with 5% carbon dioxide for 96 h. Before measurement, the CellTiter-Lumi™ luminescent cell viability assay reagent was equilibrated to room temperature in the dark. Then, 50 µL of the CellTiter-Lumi™ (Cat. No.: C0065XL) cell viability assay reagent was added to each well of the 96-well plate. The plate was shaken in the dark on a shaker at 300 rpm for 10 min to ensure complete cell lysis. After the reaction was completed, the chemiluminescence intensity was measured on a multi-mode microplate reader. The cell viability inhibition rate was determined according to the chemiluminescence intensity. Then, a cell viability curve was generated by Graphpad Prism 8.0, and the IC50 values were calculated. Table 3. Activity of the compounds of the present disclosure in cell strains with high expression of efflux pump proteins (IC50 value)

HCT-15 = experiment: as above; type: cell-based; conditions: Homo sapiens, HCT-15 cells, 96 h
Description: as §1

SNU-5 = experiment: as above; type: cell-based; conditions: Homo sapiens, SNU-5 cells, 96 h
Description: as §1

in vitro = conditions: mouse, liver microsomes
Description: (§2) The final concentration of the substrate in the incubation system was 1 µM, and the incubation time was 60 min. Sampling was performed at 0 min, 5 min, 15 min, 30 min, and 60 min. The reaction was stopped with glacial acetonitrile containing an internal standard (testosterone-d3 at a concentration of 10 ng/mL). Verapamil was used as a positive control. […] The natural logarithm of the remaining percentage was subjected to linear fitting with time to determine the elimination rate constant (k).

[1] = Metabolic stability in liver microsomes; conditions: Monkey liver microsomes, after 60 min of incubation
Description: as §2

Compound: O=C1CCC(N2Cc3cc(CNC(=O)Nc4ccc(CCCOC5CCCNC5)c(Cl)c4)ccc3C2=O)C(=O)N1 (stereo not drawn) [Compound B19]
- pIC50 (AsPc-1): 6.70 to 7.30
- pIC50 (HCT-15): 6.00 to 6.70
- pIC50 (SNU-5): > 7.30
- CLint scaled at 1 µM (in vitro): 17 mL/min/kg
- half-life at 1 µM (in vitro): 5.48 h
- Parent drug remaining % [1]: 77.7%
